Assay [1] has as its system apomorphine-induced phenomena: agitation and stereotypic chewing. As to the kind of experiment: The apomorphine test in rats (anti-apomorphine activity). It counts as in vivo, male Wistar rats. Conditions: Rattus norvegicus, sc, read-out: LED (lowest effective dose), anti-apomorphine activity in rats. How it is done: The compounds of formula (I) are potent psychotropic agents and as such they can be used in the treatment of metal disorders such as, for example, personality and psycho-affective disorders and schizophrenia. The psychotropic activity of the subject compounds (I) is strongly evidenced by the experimental data obtained in the apomorphine test in rats, a test which is indicative for central nervous system depressant activity. The test was carried out following the procedure described hereafter and the experimental data which were obtained are summarized in table V wherein the compound numbers refer to the corresponding structures in the Tables I to IV.
The apomorphine test in rats
The experimental animals used in this test were adult male Wistar rats (weight 240 ± 10 g.). After an overnight fast, the animals were treated subcutaneously (1ml/100 g) with an aqueous solution of the compound under investigation and put into isolated observation cages.

The test system of assay [2] is apomorphine-induced vomiting. Nature of the assay: block of apomorphine-induced vomiting in dogs (antiemetic activity). It counts as in vivo, beagle dogs. Particulars: Canis lupus familiaris, sc, read-out: ED50 (dose which protects 50% of the animals from emesis). Here is the method: The method used is described previously by P. A. J. Janssen and C. J. E. Niemegeers in: Arzneim. -Forsch. (Drug Res), 9, 765-767 (1959).
The compounds listed below were administered subcutaneously to beagle dogs at different doses and the animals were challenged 1 hour thereafter with a standard dose of 0.31 mg/kg (subcutaneous) of apomorphine.
The tables below give the ED50 values of a number of the compounds under consideration. As used herein, the ED50 value represents the dose which protects 50% of the animals from emesis.

Setting [3] is: beagle dogs, challenged 1 hour thereafter with 0.31 mg/kg s.c. apomorphine.
Setting [4] is: 30 min before 1.25 mg/kg i.v. apomorphine hydrochloride, observed over 1 hour, Fisher exact probability test.

SMILES strings stand for the structures. Where two headings read alike, the source gives them in different places.

In the case of `O=C(NCCN1CCC2(CC1)C(=O)NCN2c1ccccc1)c1ccccc1Cl` [Compound 3], the minimal effective dose in assay [1] came out at 0.31 mg/kg. Besides, in assay [2] (1 h), the ED50 amounted to 0.06 mg/kg.
`Cc1ccccc1C(=O)NCCN1CCC2(CC1)C(=O)NCN2c1ccccc1` [Compound 6]: in assay [1], the minimal effective dose came to 2.5 mg/kg. In addition, the ED50 in assay [2] (1 h) was 0.1 mg/kg.
For `O=C(NCCN1CCC(n2c(=O)[nH]c3ccccc32)CC1)c1ccc(F)cc1[N+](=O)[O-]`, the ED50 in assay [2] (setting [3]) was determined as 0.5 mg/kg.
`O=C(NCCN1CCC2(CC1)C(=O)NCN2c1ccccc1)c1ccccc1`: the ED50 in assay [2] (1 h) was 0.1 mg/kg.
Regarding `O=C(NCCN1CCC2(CC1)C(=O)NCN2c1ccc(F)cc1)c1ccccc1Cl` [Compound 14], the minimal effective dose in assay [1] was determined as 0.63 mg/kg. Also, in assay [2] (1 h), the ED50 stood at 0.004 mg/kg.
On to `O=C(NCCN1CCC2(CC1)C(=O)NCN2c1ccc(F)cc1)c1ccccc1O` [Compound 11], for which the minimal effective dose in assay [1] turned out to be 10 mg/kg. The ED50 in assay [2] (1 h) was 0.2 mg/kg.
For `O=C(NCCN1CCC(n2c(=O)[nH]c3cc(Cl)ccc32)CC1)c1ccc(F)cc1` [Compound 31], the minimal effective dose in assay [1] amounted to 5 mg/kg. The ED50 in assay [2] (1 h) worked out at 0.08 mg/kg.
Regarding `CC(=O)Nc1cc(F)ccc1C(=O)NCCN1CCC2(CC1)C(=O)NCN2c1ccc(F)cc1` [Compound 25], the minimal effective dose in assay [1] turned out to be 5 mg/kg. Moreover, the ED50 in assay [2] (1 h) came to 0.07 mg/kg.
Turning to `O=C(NCCN1CCC2(CC1)C(=O)NCN2c1ccccc1)c1ccccc1F` [Compound 16], the minimal effective dose in assay [1] is 1.25 mg/kg. For the same compound, the ED50 in assay [2] (1 h) was 0.25 mg/kg.
With `Cl.Nc1cc(F)ccc1C(=O)NCCN1CCC2(CC1)C(=O)NCN2c1ccc(F)cc1.O` [Compound 20, 2-amino-4-fluoro-N-{2-[1-(4-fluorophenyl)-4-oxo-1,3,8-triazaspiro[4,5]dec-8-yl]ethyl}benzamide hydrochloride hydrate], in assay [1], the minimal effective dose was 5 mg/kg. In addition, the ED50 in assay [2] (1 h) was 0.002 mg/kg.
For the compound `O=C(NCCN1CCC(n2c(=O)[nH]c3cc(Cl)ccc32)CC1)c1ccc(F)cc1Cl` [Compound 32], the minimal effective dose in assay [1] (setting [4]) came to 1.25 mg/kg. The ED50 in assay [2] (setting [3]) turned out to be 0.03 mg/kg.
Consider `O=C(NCCN1CCC2(CC1)C(=O)NCN2c1ccc(F)cc1)c1ccccc1[N+](=O)[O-]`, for which the ED50 in assay [2] (1 h) turned out to be 0.12 mg/kg.
Same read-out and setting: for `O=C(NCCN1CCC2(CC1)C(=O)NCN2c1ccccc1)c1ccc(F)cc1[N+](=O)[O-]` the value was 0.25 mg/kg.
Regarding `O=C(NCCN1CCC(n2c(=O)[nH]c3ccccc32)CC1)c1ccccc1`, in assay [2] (setting [3]), the ED50 came to 0.2 mg/kg.
As to `O=C(NCCN1CCC2(CC1)C(=O)NCN2c1ccccc1)c1ccc(F)cc1` [Compound 2], the minimal effective dose in assay [1] amounted to 5 mg/kg. Further, the ED50 in assay [2] (1 h) amounted to 0.06 mg/kg.
On to `O=C(NCCN1CCC2(CC1)C(=O)NCN2c1ccc(F)cc1)c1ccc(F)cc1` [Compound 8], for which the minimal effective dose in assay [1] is 10 mg/kg. The ED50 in assay [2] (1 h) worked out at 0.015 mg/kg.
For `Nc1ccccc1C(=O)NCCN1CCC(n2c(=O)[nH]c3cc(Cl)ccc32)CC1`, in assay [2] (setting [3]), the ED50 came out at 0.45 mg/kg.
With `O=C(NCCN1CCC2(CC1)C(=O)NCN2c1ccccc1)c1cccc(Cl)c1`, the ED50 in assay [2] (1 h) was 0.63 mg/kg.
For the compound `Cl.Nc1cc(F)ccc1C(=O)NCCN1CCC2(CC1)C(=O)NCN2c1ccccc1.O` [Compound 7, 2-amino-4-fluoro-N-[2-(4-oxo-1-phenyl-1,3,8-triazaspiro[4,5]dec-8-yl)ethyl]benzamide hydrochloride hydrate], the minimal effective dose in assay [1] amounted to 2.5 mg/kg. Besides, the ED50 in assay [2] (1 h) was found to be 0.004 mg/kg.
Take `O=C(NCCN1CCC(n2c(=O)[nH]c3ccccc32)CC1)c1ccccc1Cl` [Compound 34]: in assay [1] (setting [4]), the minimal effective dose was determined as 5 mg/kg. Further, in assay [2] (setting [3]), the ED50 amounted to 1.5 mg/kg.
Turning to `N#CCCn1c(=O)n(C2CCN(CCNC(=O)c3ccc(F)cc3)CC2)c2ccccc21`, the ED50 in assay [2] (setting [3]) is 0.5 mg/kg.
With `O=C(NCCN1CCC(n2c(=O)[nH]c3cc(Cl)ccc32)CC1)c1ccc(F)cc1[N+](=O)[O-]`, in assay [2] (setting [3]), the ED50 came to 0.25 mg/kg.
For `Nc1cc(F)ccc1C(=O)NCCN1CCC(n2c(=O)[nH]c3ccccc32)CC1` [Compound 33], in assay [1] (setting [4]), the minimal effective dose is 5 mg/kg. Further, in assay [2] (setting [3]), the median effective dose (ED50) came out at 0.03 mg/kg.
Turning to `Cn1cccc1C(=O)NCCN1CCC2(CC1)C(=O)NCN2c1ccc(F)cc1` [Compound 24], the minimal effective dose in assay [1] is 10 mg/kg. In addition, the ED50 in assay [2] (1 h) is 0.25 mg/kg.
For `Nc1ccccc1C(=O)NCCN1CCC(n2c(=O)[nH]c3ccccc32)CC1` [Compound 36, 2-amino-N-{2-[4-(2,3-dihydro-2-oxo-1H-benzimidazol-1-yl)-1-piperidinyl]ethyl}benzamide hemihydrate], the ED50 in assay [2] (setting [3]) turned out to be 0.1 mg/kg.
With `CC(=O)Nc1cc(F)ccc1C(=O)NCCN1CCC(n2c(=O)[nH]c3cc(Cl)ccc32)CC1` [Compound 38], in assay [1] (setting [4]), the minimal effective dose came out at 10 mg/kg. Besides, in assay [2] (setting [3]), the ED50 came to 0.06 mg/kg.
As to `Nc1cc(F)ccc1C(=O)NCCN1CCC(O)(c2ccc(Cl)cc2)CC1` [Compound 40], in assay [1], the minimal effective dose came to 5 mg/kg. In assay [2] (1 h), the ED50 turned out to be 0.7 mg/kg.
For `O=C(NCCN1CCC2(CC1)C(=O)NCN2c1ccccc1)c1ccc(Cl)cc1`, the median effective dose (ED50) in assay [2] (1 h) is 0.8 mg/kg.
Turning to `O=C(NCCN1CCC2(CC1)C(=O)NCN2c1ccc(F)cc1)c1ccc(F)cc1Cl` [Compound 9], in assay [1], the minimal effective dose is 0.63 mg/kg. Further, in assay [2] (1 h), the ED50 worked out at 0.002 mg/kg.
On to `CC(=O)Nc1cc(F)ccc1C(=O)NCCN1CCC(n2c(=O)[nH]c3ccccc32)CC1` [Compound 37], for which the minimal effective dose in assay [1] (setting [4]) amounted to 10 mg/kg. In assay [2] (setting [3]), the ED50 was 0.04 mg/kg.
For `COc1ccc(C(=O)NCCN2CCC3(CC2)C(=O)NCN3c2ccccc2)cc1`, the ED50 in assay [2] (1 h) came to 0.5 mg/kg.
In the case of `O=C(NCCN1CCC2(CC1)C(=O)NCN2c1ccccc1)c1cccs1`, the ED50 in assay [2] (1 h) amounted to 0.45 mg/kg.
For the compound `O=C(NCCN1CCC(n2c(=O)[nH]c3ccccc32)CC1)c1ccccc1F` [Compound 27], the minimal effective dose in assay [1] (setting [4]) is 5 mg/kg. In addition, the median effective dose (ED50) in assay [2] (setting [3]) was 0.5 mg/kg.
For the compound `O=C(NCCN1CCC(n2c(=O)[nH]c3ccccc32)CC1)c1ccc(F)cc1`, the 50% effective dose (ED50) in assay [2] (setting [3]) came to 0.12 mg/kg.
On to `O=C(NCCN1CCC2(CC1)C(=O)NCN2c1ccccc1)c1ccc(F)cc1Cl` [Compound 21], for which the minimal effective dose in assay [1] came to 2.5 mg/kg. The ED50 in assay [2] (1 h) is 0.015 mg/kg.
On to `Nc1ccccc1C(=O)NCCN1CCC2(CC1)C(=O)NCN2c1ccc(F)cc1` [Compound 23], for which, in assay [1], the minimal effective dose was determined as 2.5 mg/kg. Besides, the ED50 in assay [2] (1 h) was determined as 0.008 mg/kg.
On to `Cc1ccccc1C(=O)NCCN1CCC(n2c(=O)[nH]c3ccccc32)CC1`, for which the ED50 in assay [2] (setting [3]) is 0.25 mg/kg.
With `O=C(NCCN1CCC2(CC1)C(=O)NCN2c1ccccc1)c1ccccc1Br` [Compound 4], in assay [1], the minimal effective dose is 2.5 mg/kg. Besides, the ED50 in assay [2] (1 h) was 0.25 mg/kg.
Take `O=C(NCCN1CCC2(CC1)C(=O)NCN2c1ccc(F)cc1)c1ccc(F)cc1[N+](=O)[O-]`: in assay [2] (1 h), the median effective dose (ED50) amounted to 0.03 mg/kg.
With `O=C(NCCN1CC=C(n2c(=O)[nH]c3ccccc32)CC1)c1ccc(F)cc1`, in assay [2] (setting [3]), the ED50 is 0.25 mg/kg.

As usually defined, the ED50 is the midpoint of the dose-response relation.

Source of the values: patent publication US4031226A, “N-[(1-piperidinyl)alkyl]arylcarboxamide derivatives” (Janssen Pharmaceutica N.V., priority 1976, dated 1977).
